According to PubChem BioAssay AID248 (DTP/NCI, 2004):
Several values for one entry are separate records, joined by “and”; a condition that tells them apart may be missing. Equal entries are not always repeated. Inconclusive results and toxic doses are left out. No stated cut-off is given here; in the data, active means T/C of 150% or more; inactive means T/C below 125%. Peptide text beside a SMILES is read from it. * marks the point of attachment. Cbz = O=C(OCc1ccccc1)*

Test system: L1210 leukemia ip in BDF1 mice, survival T/C
Experiment: NCI In Vivo Anticancer Drug Screen. Data for tumor model L1210 Leukemia (intraperitoneal) in B6D2F1 (BDF1) mice
Conditions: endpoint: mean survival time, higher = longer survival
Outline: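 Each compound was tested against a transplantable tumor grown in mice. The endpoint was survival, with treated animals benchmarked against vehicle controls as a simple ratio.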

[1] = dose: 100.0 mg/kg/injection, schedule: Q01DX009 (ip), vehicle: saline with Tween-80
[2] = dose: 100.0 mg/kg/injection, schedule: Q04DX003 (ip), vehicle: saline with Tween-80
[3] = dose: 200.0 mg/kg/injection, schedule: Q01DX009 (ip), vehicle: saline with Tween-80
[4] = dose: 200.0 mg/kg/injection, schedule: Q04DX003 (ip), vehicle: saline with Tween-80
[5] = dose: 400.0 mg/kg/injection, schedule: Q01DX009 (ip), vehicle: saline with Tween-80
[6] = dose: 400.0 mg/kg/injection, schedule: Q04DX003 (ip), vehicle: saline with Tween-80
[7] = dose: 100.0 mg/kg/injection, schedule: Q04DX002 (ip), vehicle: Klucel (hydroxypropylcellulose) (HPC)
[8] = dose: 200.0 mg/kg/injection, schedule: Q04DX002 (ip), vehicle: Klucel (hydroxypropylcellulose) (HPC)
[9] = dose: 100.0 mg/kg/injection, schedule: Q01DX001 (ip), vehicle: saline
[10] = dose: 200.0 mg/kg/injection, schedule: Q01DX001 (ip), vehicle: saline
[11] = dose: 400.0 mg/kg/injection, schedule: Q01DX001 (ip), vehicle: saline
[12] = dose: 12.5 mg/kg/injection, schedule: Q04DX003 (ip), vehicle: saline
[13] = dose: 50.0 mg/kg/injection, schedule: Q04DX003 (ip), vehicle: saline
[14] = dose: 100.0 mg/kg/injection, schedule: Q04DX003 (ip), vehicle: saline
[15] = dose: 200.0 mg/kg/injection, schedule: Q04DX003 (ip), vehicle: saline
[16] = dose: 400.0 mg/kg/injection, schedule: Q04DX003 (ip), vehicle: saline
[17] = dose: 100.0 mg/kg/injection, schedule: Q01DX009 (ip), vehicle: Klucel (hydroxypropylcellulose) (HPC)
[18] = dose: 100.0 mg/kg/injection, schedule: Q04DX003 (ip), vehicle: Klucel (hydroxypropylcellulose) (HPC)
[19] = dose: 200.0 mg/kg/injection, schedule: Q01DX009 (ip), vehicle: Klucel (hydroxypropylcellulose) (HPC)
[20] = dose: 400.0 mg/kg/injection, schedule: Q01DX009 (ip), vehicle: Klucel (hydroxypropylcellulose) (HPC)

Measured: T/C

C(=C1c2ccccc2-c2ccccc21)c1ccccc1
inactive: [1] 100 % of control | [2] 100 % of control | [3] 95 % of control | [4] 100 % of control | [5] 91 % of control | [6] 92 % of control

Cc1cnc(NS(=O)(=O)c2ccc(N)cc2)nc1-c1ccccc1O
inactive: [7] 98 % of control | [8] 98 % of control | dose: 400.0 mg/kg/injection, schedule: Q04DX002 (ip), vehicle: Klucel (hydroxypropylcellulose) (HPC) 91 % of control

COc1ccccc1NC(=O)NCc1ccco1
inactive: dose: 77.0 mg/kg/injection, schedule: Q01DX Z (ip), vehicle: methylcellulose (MC) 90 % of control | dose: 116.0 mg/kg/injection, schedule: Q01DX Z (ip), vehicle: methylcellulose (MC) 103 % of control | dose: 175.0 mg/kg/injection, schedule: Q01DX Z (ip), vehicle: methylcellulose (MC) 105 % of control

CC(C)CC(Br)C(=O)NCC(=O)O (stereo unspecified)
inactive: [1] 88 % of control | [3] 91 % of control | [5] 89 % of control

CCOC(=O)C(=O)Cc1cnccn1
inactive: dose: 100.0 mg/kg/injection, schedule: Q01DX001 (ip), vehicle: other 101 % of control and 108 % of control | dose: 200.0 mg/kg/injection, schedule: Q01DX001 (ip), vehicle: other 100 % of control and 101 % of control | dose: 400.0 mg/kg/injection, schedule: Q01DX001 (ip), vehicle: other 97 % of control

Cc1ccc(CSC(=N)N)cc1C
inactive: dose: 25.0 mg/kg/injection, schedule: Q04DX002 (ip), vehicle: Klucel (hydroxypropylcellulose) (HPC) 98 % of control | dose: 50.0 mg/kg/injection, schedule: Q04DX002 (ip), vehicle: Klucel (hydroxypropylcellulose) (HPC) 103 % of control | [7] 101 % of control

COC(=O)C(CC(C)C)NC(=O)C(Cc1ccccc1)NC(=O)C(CO)NC(=O)OCc1ccccc1 (stereo not drawn) (Cbz-Ser-Phe-Leu-OMe; configuration not given here)
inactive: [9] 93 % of control | [10] 93 % of control | [11] 94 % of control

NNC(N)=S
inactive: dose: 3.13 mg/kg/injection, schedule: Q04DX003 (ip), vehicle: saline 109 % of control | dose: 6.25 mg/kg/injection, schedule: Q04DX003 (ip), vehicle: saline 104 % of control and 103 % of control | [12] 97 % of control and 100 % of control

CC(=O)NN(C)C(C)=O
inactive: [12] 110 % of control | dose: 25.0 mg/kg/injection, schedule: Q04DX003 (ip), vehicle: saline 120 % of control | [13] 112 % of control | [14] 101 % of control | dose: 130.0 mg/kg/injection, schedule: Q04DX003 (ip), vehicle: saline 105 % of control | [15] 96 % of control and 120 % of control | dose: 300.0 mg/kg/injection, schedule: Q04DX003 (ip), vehicle: saline 100 % of control | [16] 106 % of control

CS(=O)(=O)OC1CCC(OS(C)(=O)=O)CC1 (stereo unspecified)
inactive: dose: 100.0 mg/kg/injection, schedule: Q01DX001 (ip), vehicle: saline with Tween-80 103 % of control | dose: 200.0 mg/kg/injection, schedule: Q01DX001 (ip), vehicle: saline with Tween-80 100 % of control | dose: 400.0 mg/kg/injection, schedule: Q01DX001 (ip), vehicle: saline with Tween-80 100 % of control

Clc1ccc(Cl)nc1
inactive: [17] 103 % of control | [18] 98 % of control | [19] 93 % of control | dose: 200.0 mg/kg/injection, schedule: Q04DX003 (ip), vehicle: Klucel (hydroxypropylcellulose) (HPC) 98 % of control | [20] 103 % of control | dose: 400.0 mg/kg/injection, schedule: Q04DX003 (ip), vehicle: Klucel (hydroxypropylcellulose) (HPC) 88 % of control

COc1cc([N+](=O)[O-])c2nc(C(=O)O)ccc2c1
inactive: dose: 50.0 mg/kg/injection, schedule: Q01DX001 (ip), vehicle: saline 116 % of control | [9] 106 % of control | [10] 112 % of control

OC1C2CCN(CC2)C1C(c1ccccc1)c1ccccc1 (stereo unspecified)
inactive: dose: 25.0 mg/kg/injection, schedule: Q04DX003 (ip), vehicle: saline with Tween-80 95 % of control | dose: 50.0 mg/kg/injection, schedule: Q04DX003 (ip), vehicle: saline with Tween-80 98 % of control | [2] 96 % of control and 87 % of control

CC(C)(C)CC(C)(C)N(CSc1ccc(Cl)cc1)CSc1ccc(Cl)cc1
inactive: [9] 100 % of control | [10] 93 % of control | [11] 87 % of control

Cc1ccc(N2CCN(CCCN3CCN(c4ccc(Cl)cc4)CC3)CC2)cc1
inactive: dose: 8.0 mg/kg/injection, schedule: Q01DX Z (ip), vehicle: carboxymethylcellulose (CMC) 98 % of control | dose: 16.0 mg/kg/injection, schedule: Q01DX Z (ip), vehicle: carboxymethylcellulose (CMC) 95 % of control | [18] 109 % of control

NCc1ccccc1[N+](=O)[O-]
inactive: [14] 104 % of control | [15] 104 % of control | [16] 102 % of control

Cc1cccc(Cl)c1NC1=NCCO1
inactive: dose: 6.25 mg/kg/injection, schedule: Q01DX009 (ip), vehicle: saline with Tween-80 93 % of control | dose: 12.5 mg/kg/injection, schedule: Q01DX009 (ip), vehicle: saline with Tween-80 102 % of control | dose: 25.0 mg/kg/injection, schedule: Q01DX009 (ip), vehicle: saline with Tween-80 100 % of control

CC(=O)c1cccc(NC(=O)Oc2cc(=O)oc3ccccc23)c1
inactive: dose: 25.0 mg/kg/injection, schedule: Q01DX009 (ip), vehicle: Klucel (hydroxypropylcellulose) (HPC) 92 % of control | dose: 50.0 mg/kg/injection, schedule: Q01DX009 (ip), vehicle: Klucel (hydroxypropylcellulose) (HPC) 101 % of control | [17] 101 % of control

O=C(O)C1OC(Oc2ccc3oc4ccccc4c(=O)c3c2)C(O)C(O)C1O (stereo unspecified)
inactive: [17] 91 % of control | [19] 97 % of control | [20] 111 % of control

Nc1nc2ncc(C(=O)O)nc2c(=O)[nH]1
inactive: [13] 98 % of control | [14] 97 % of control and 104 % of control | [16] 105 % of control

Cc1ccc2c(c1)[n+]([O-])c(N)c(C#N)[n+]2[O-]
inactive: [7] 102 % of control | [8] 98 % of control

Cc1ccc2[nH]c(=S)n(-c3ccccc3)c(=O)c2c1
inactive: dose: 100.0 mg/kg/injection, schedule: Q04DX002 (ip), vehicle: saline with Tween-80 91 % of control | dose: 200.0 mg/kg/injection, schedule: Q04DX002 (ip), vehicle: saline with Tween-80 91 % of control | dose: 400.0 mg/kg/injection, schedule: Q04DX002 (ip), vehicle: saline with Tween-80 91 % of control

CCCCCCCCCCOc1ccc(OCCCCCCCCC)cc1
inactive: [2] 94 % of control | [4] 100 % of control | [6] 87 % of control

Cc1cc2oc(=O)cc(N3CCOCC3)c2c(=O)o1
inactive: [1] 117 % of control | [3] 114 % of control
